Read-outs that look alike come from different tables or passages of the source.
Columns and labels:
[1] = target: GST-tagged K-Ras mutant / His-tagged hSOS1 (Homo sapiens, UniProt P01116); assay: HTRF assay, K-Ras mutant / SOS1 interaction; assay type: binding; details: read-out: IC50 against mutant Kras
Method in brief: (§1)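 Compounds, in duplicate at six concentrations from 10 μM to 0.01 μM, are added to GST-K-Ras premixed with anti-GST-Eu(K), then His-hSOS1 with anti-6His-XL665. After roughly 10 min, FRET is measured and the emission ratio is used to derive IC50.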

wildtype Kras / hSOS1 = target: T1, wildtype Kras / hSOS1 (Homo sapiens, UniProt P01116); assay: HTRF assay, wildtype Kras / SOS1 interaction; assay type: binding; details: read-out: IC50 against wildtype Kras
T1 construct: made in house; host or cells: E. coli BL21 (DE3)
Method in brief: as §1

[2] = compound nos. 102-196, general methodology of example 5
[3] = compound nos. 201-213, general methodology of example 5

Chain of GST-tagged K-Ras mutant / His-tagged hSOS1 (P01116 whole entry G12D, form open): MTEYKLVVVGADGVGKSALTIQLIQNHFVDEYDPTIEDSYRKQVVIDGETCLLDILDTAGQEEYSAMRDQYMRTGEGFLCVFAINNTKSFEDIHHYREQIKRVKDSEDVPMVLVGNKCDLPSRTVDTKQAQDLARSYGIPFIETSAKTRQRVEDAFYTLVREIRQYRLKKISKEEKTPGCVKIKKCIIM
T1 sequence (P01116 1-188 isoform P01116-2): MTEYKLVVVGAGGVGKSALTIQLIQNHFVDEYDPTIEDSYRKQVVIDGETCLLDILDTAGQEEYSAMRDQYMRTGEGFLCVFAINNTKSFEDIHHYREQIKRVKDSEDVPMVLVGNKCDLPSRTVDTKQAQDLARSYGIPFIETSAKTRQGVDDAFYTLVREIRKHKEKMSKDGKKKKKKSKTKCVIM

Compound	IC50 ([1]; compound nos. 401-703) [nM]	IC50 (wildtype Kras / hSOS1; compound nos. 401-703) [nM]	further results
Fc1c(-c2cccc3ncccc23)c(Cl)cc2c(N3CCCCCC3)nc(OCC34CCCN3CCC4)nc12 [Compound 540, 4-(azepan-1-yl)-6-chloro-8-fluoro-7-(quinolin-5-yl)-2-((tetrahydro-1H-pyrrolizin-7a(5H)-yl)methoxy)quin-azoline]	> 500	> 500	–
Nc1nc2c(-c3c(Cl)cc4c(N5CC6CCC(C5)N6)nc(OCC56CCCN5CCC6)nc4c3F)c(F)ccc2s1 [Compound 578, 4-(4-(3,8-diazabicyclo-[3.2.1]octan-3-yl)-6-chloro-8-fluoro-2-((tetrahydro-1H-pyrrolizin-7a(5H)-l)meth-oxy)quinazolin-7-yl)-5-fluorobenzo[d]thiazol-2-amine]	< 500	> 500	–
Cc1ncc(COc2nc(N3CCCCCC3)c3cc(Cl)c(-c4cccc5sc(N)nc45)c(F)c3n2)cn1 [Compound 505, 4-(4-(azepan-1-yl)-6-chloro-8-fluoro-2-((2-methylpyr-imidin-5-yl)methoxy)quin-azolin-7-yl)benzo[d]thiazol-2-amine]	> 500	> 500	–
CNCCCN1[C@@H]2CC[C@H]1CN(c1nc(OCC34CCCN3CCC4)nc3c(F)c(-c4ccc(F)c5sc(N)nc45)c(Cl)cc13)C2 [Compound 594, 4-(6-chloro-8-fluoro-4-((1R,5S)-8-(3-(methyl-amino)propyl)-3,8-diaza-bicyclo[3.2.1]octan-3-yl)-2-((tetrahydro-1H-pyrrol-izin-7a(5H)-yl)methoxy)-quinazolin-7-yl)-7-fluoro-benzo[d]thiazol-2-amine]	< 500	> 500	–
CN1CCC[C@H]1COc1nc(N2CCCC3(CNC3)C2)c2cc(Cl)c(-c3cccc4sc(N)nc34)c(F)c2n1 [Compound 132, 4-(6-chloro-8-fluoro-2-(((S)-1-methylpyrrolidin-2-yl)-methoxy)-4-(2,6-diazaspiro-[3.5]nonan-6-yl)quinazolin-7-yl)benzo[d]thiazol-2-amine]	–	–	IC50 [1, 2]: > 500 nM; IC50 (wildtype Kras / hSOS1; [2]): > 500 nM
N#C/C=C/c1cc2c(N3CC4CCC(C3)N4)nc(OC[C@@]34CCCN3C[C@H](F)C4)nc2c(F)c1-c1ccc(F)c2sc(N)nc12 [Compound 495, (E)-3-(7-(2-amino-7-fluoro-benzo[d]thiazol-4-yl)-4-(3,8-diazabicyclo[3.2.1]octan-3-yl)-8-fluoro-2-(((2R,7aS)-2-fluorotetrahydro-1H-pyrrol-izin-7a(5H)-yl)methoxy)-quinazolin-6-yl)acrylonitrile]	> 500	< 500	–
CN1CCC[C@H]1COc1nc(N2CCCC(C(N)=O)CC2)c2cc(Cl)c(-c3cccc4sc(N)nc34)c(F)c2n1 (stereo partly drawn) [Compound 581, 1-(7-(2-aminobenzo[d]-thiazol-4-yl)-6-chloro-8-fluoro-2-(((S)-1-methyl-pyrrolidin-2-yl)methoxy)-quinazolin-4-yl)azepane-4-carboxamide]	< 500	> 500	–
CN1CCC[C@H]1COc1nc(N2CCNCC(F)(F)C2)c2cc(Cl)c(-c3cccc4nc(N)sc34)c(F)c2n1 [Compound 184, 7-(6-chloro-4-(6,6-difluoro-1,4-diazepan-1-yl)-8-fluoro-2-(((S)-1-methylpyrrolidin-2-yl)methoxy)quinazolin-7-yl)benzo[d]thiazol-2-amine]	–	–	IC50 [1, 2]: > 500 nM; IC50 (wildtype Kras / hSOS1; [2]): > 500 nM
N#CCCc1cc2c(N3CC4CCC(C3)N4)nc(OC[C@@]34CCCN3C[C@H](F)C4)nc2c(F)c1-c1cc(O)cc2ccccc12 [Compound 595, 3-(4-(3,8-diazabicyclo-[3.2.1]octan-3-yl)-8-fluoro-2-(((2R,7aS)-2-fluorotetra-hydro-1H-pyrrolizin-7a(5H)-yl)methoxy)-7-(3-hydroxynaphthalen-1-yl)-quinazolin-6-yl)propane-nitrile]	< 500	> 500	–
CN(C)CC1(COc2nc(N3C[C@H]4CC[C@@H](C3)N4)c3cc(Cl)c(-c4ccc(F)c5sc(N)nc45)c(F)c3n2)CC1 [Compound 210]	–	–	IC50 [1, 3]: < 1500 nM; IC50 (wildtype Kras / hSOS1; [3]): < 1500 nM
CNCCCN1CCCN(c2nc(OCC34CCCN3CCC4)nc3c(F)c(-c4ccc(F)c5sc(N)nc45)c(Cl)cc23)CC1 [Compound 640, 4-(6-chloro-8-fluoro-4-(4-(3-(methylamino)propyl)-1,4-diazepan-1-yl)-2-((tetrahydro-1H-pyrrolizin-7a(5H)-yl)methoxy)quin-azolin-7-yl)-7-fluorobenzo-[d]thiazol-2-amine]	< 500	> 500	–
Nc1nc2c(-c3c(Cl)cc4c(N5CC6CCC(C5)O6)nc(OC[C@@]56CCCN5C[C@H](F)C6)nc4c3F)ccc(F)c2s1 [Compound 454, 4-(4-(8-oxa-3-azabicyclo-[3.2.1]octan-3-yl)-6-chloro-8-fluoro-2-(((2R,7aS)-2-fluorotetrahydro-1H-pyrrolizin-7a(5H)-yl)meth-oxy)quinazolin-7-yl)-7-fluorobenzo[d]thiazol-2-amine]	< 500	< 500	–
Nc1nc2c(-c3c(Cl)cc4c(N5CC6CCC(C5)N6)nc(OC[C@@]56CCCN5C[C@H](F)C6)nc4c3F)cccc2cc1F [Compound 665, 8-(4-(3,8-diazabicyclo-[3.2.1]octan-3-yl)-6-chloro-8-fluoro-2-(((2R,7aS)-2-fluorotetrahydro-1H-pyrrol-izin-7a(5H)-yl)methoxy)-quinazolin-7-yl)-3-fluoro-quinolin-2-amine]	> 500	> 500	–
CN1CCC[C@H]1COc1nc(N2CCC(F)C(F)CC2)c2cc(Cl)c(-c3cccc4sc(N)nc34)c(F)c2n1 (stereo partly drawn) [Compound 642, 4-(6-chloro-4-(4,5-difluoro-azepan-1-yl)-8-fluoro-2-(((S)-1-methylpyrrolidin-2-yl)methoxy)quinazolin-7-yl)-benzo[d]thiazol-2-amine]	< 500	> 500	–
Nc1nc2c(-c3c(Cl)cc4c(N5CCNCC(O)C5)nc(OCC56CCCN5C[C@H](F)C6)nc4c3F)ccc(F)c2s1 (stereo partly drawn) [Compound 162, 1-(7-(2-amino-7-fluoro-benzo[d]thiazol-4-yl)-6-chloro-8-fluoro-2-(((2R)-2-fluorotetrahydro-1H-pyrrol-izin-7a(5H)-yl)methoxy)-quinazolin-4-yl)-1,4-diazepan-6-ol]	–	–	IC50 [1, 2]: < 500 nM; IC50 (wildtype Kras / hSOS1; [2]): < 500 nM
Nc1nc2c(-c3c(Cl)cc4c(N5[C@@H]6CC[C@H]5CC(F)C6)nc(OC[C@@]56CCCN5C[C@H](F)C6)nc4c3F)ccc(F)c2s1 (stereo partly drawn) [Compound 304, 4-(6-chloro-8-fluoro-4-((1R,3S,5S)-3-fluoro-8-azabicyclo[3.2.1]octan-8-yl)-2-(((2R,7aS)-2-fluoro-tetrahydro-1H-pyrrolizin-7a(5H)-yl)methoxy)quin-azolin-7-yl)-7-fluorobenzo-[d]thiazol-2-amine]	–	–	IC50 ([1]; compound nos. 301-306): < 1500 nM; IC50 (wildtype Kras / hSOS1; compound nos. 301-306): < 1500 nM
Nc1nc2c(-c3c(Cl)cc4c(N5CCNCC(F)(F)C5)nc(OCC5(CN6CCCC6)CC5)nc4c3F)ccc(F)c2s1 [Compound 452, 4-(6-chloro-4-(6,6-difluoro-1,4-diazepan-1-yl)-8-fluoro-2-((1-(pyrrolidin-1-ylmeth-yl)cyclopropyl)methoxy)-quinazolin-7-yl)-7-fluoro-benzo[d]thiazol-2-amine]	< 500	< 500	–
Nc1nc2c(-c3ccc4c(N5CC6CCC(C5)N6)nc(OC[C@@]56CCCN5C[C@H](F)C6)nc4c3F)ccc(F)c2s1 [Compound 207, 4-(4-((1R,5S)-3,8-diaza-bicyclo[3.2.1]octan-3-yl)-8-fluoro-2-(((2R,7aS)-2-fluoro-tetrahydro-1H-pyrrolizin-7a(5H)-yl)methoxy)quin-azolin-7-yl)-7-fluorobenzo-[d]thiazol-2-amine]	–	–	IC50 [1, 3]: < 1500 nM; IC50 (wildtype Kras / hSOS1; [3]): < 1500 nM
Cc1ccc2oc(N)nc2c1-c1c(Cl)cc2c(N3CCNCC(F)(F)C3)nc(OC[C@@H]3CCCN3C)nc2c1F [Compound 462, 4-(6-chloro-4-(6,6-difluoro-1,4-diazepan-1-yl)-8-fluoro-2-(((S)-1-methylpyrrolidin-2-yl)methoxy)quinazolin-7-yl)-5-methylbenzo[d]oxazol-2-amine]	< 500	< 500	–
N#CCC1CNCCN(c2nc(OCC34CCCN3CCC4)nc3c(F)c(-c4ccc(F)c5sc(N)nc45)c(Cl)cc23)C1 (centres unmarked) [Compound 187, 2-(1-(7-(2-amino-7-fluoro-benzo[d]thiazol-4-yl)-6-chloro-8-fluoro-2-((tetra-hydro-1H-pyrrolizin-7a(5H)-yl)methoxy)quin-azolin-4-yl)-1,4-diazepan-6-yl)acetonitrile]	–	–	IC50 [1, 2]: < 500 nM; IC50 (wildtype Kras / hSOS1; [2]): < 500 nM
Fc1ccc(-c2c(Cl)cc3c(N4CC5CCC(C4)N5)nc(OC[C@@]45CCCN4C[C@H](F)C5)nc3c2F)c2c1CCCC2 [Compound 689, 4-(3,8-diazabicyclo[3.2.1]-octan-3-yl)-6-chloro-8-fluoro-7-(4-fluoro-5,6,7,8-tetrahydronaphthalen-1-yl)-2-(((2R,7aS)-2-fluorotetra-hydro-1H-pyrrolizin-7a(5H)-yl)methoxy)quinazoline]	> 500	> 500	–
CN1CCC[C@H]1COc1nc2c(c(N3CCNCC(F)(F)C3)n1)CCC(c1cccc3sc(N)nc13)C2 (stereo partly drawn) [Compound 432, 4-(4-(6,6-difluoro-1,4-diazepan-1-yl)-2-(((S)-1-methylpyrrolidin-2-yl)methoxy)-5,6,7,8-tetrahydroquinazolin-7-yl)benzo[d]thiazol-2-amine]	> 500	< 500	–

— patent publication US20240254129A1, “HETEROCYCLIC COMPOUNDS AND USES THEREOF” (Kumquat Biosciences Inc., priority 2021, published 2024)
